Data set [1] has as its target T1, NaV1.1 (Homo sapiens (Human), UniProt P35498). In words: Sodium Influx Assay (Flux), NaV1.1. Type of data set: cell-based. The conditions noted are these: Trex HEK293 cells, ANG2 dye; arithmetic mean.
Data set [2] concerns the target T2, NaV1.6 (Homo sapiens (Human), UniProt Q9UQD0). Nature of the data set: Electrophysiological Assay (EP), patch voltage clamp, NaV1.6. Type of data set: cell-based. The conditions noted are these: HEK-293 cells, whole-cell patch clamp, inactivated state; arithmetic mean. Background: In patch-clamp work, channel activity is measured electrically.
Data set [3] concerns the target T1, NaV1.1. Nature of the data set: Electrophysiological Assay (EP), patch voltage clamp, NaV1.1. The format is cell-based. Particulars: HEK-293 cells, whole-cell patch clamp, inactivated state; arithmetic mean. As for the experimental part: Sodium currents were measured using the patch clamp technique in the whole-cell configuration using either a PatchXpress automated voltage clamp or manually using an Axopatch 200B (Axon Instruments) or Model 2400 (A-M systems) amplifier.
In some studies, the external sodium was reduced by equimolar replacement with choline. […] All recordings were performed at ambient temperature in a bath chamber with a volume of 150 μL. Control sodium currents were measured in 0.5% DMSO. Controls and representative compounds of the invention were applied to the recording chamber through a 4-pinch or 8-pinch valve bath perfusion system manufactured by ALA Scientific Instruments.
Series resistance compensation was applied (60-80%). […] All statistics in this study are given as mean±SD.
The membrane potential was maintained at a voltage where inactivation of the channel is complete. The voltage is then stepped back to a very negative (Vhold=−150 mV) voltage for 20 ms and then a test pulse is applied to quantify the compound block. […] The percent decrease in sodium current following wash-on of compound was taken as the percent block of sodium channels.

The target in data set [4] is T2, NaV1.6. In words: Sodium Influx Assay (Flux), NaV1.6. Particulars: read-out: Flux NaV1.6 IC50; Trex HEK293 cells, ANG2 dye; arithmetic mean.
For the next data set, the target named is NaV1.5 (Homo sapiens (Human), UniProt Q14524). In words: Sodium Influx Assay (Flux), NaV1.5. The conditions noted are these: read-out: Flux NaV1.5 IC50; Trex HEK293 cells, ANG2 dye; arithmetic mean.
NaV1.5, sequence (Q14524 other isoform, or with tags, fused parts or gaps): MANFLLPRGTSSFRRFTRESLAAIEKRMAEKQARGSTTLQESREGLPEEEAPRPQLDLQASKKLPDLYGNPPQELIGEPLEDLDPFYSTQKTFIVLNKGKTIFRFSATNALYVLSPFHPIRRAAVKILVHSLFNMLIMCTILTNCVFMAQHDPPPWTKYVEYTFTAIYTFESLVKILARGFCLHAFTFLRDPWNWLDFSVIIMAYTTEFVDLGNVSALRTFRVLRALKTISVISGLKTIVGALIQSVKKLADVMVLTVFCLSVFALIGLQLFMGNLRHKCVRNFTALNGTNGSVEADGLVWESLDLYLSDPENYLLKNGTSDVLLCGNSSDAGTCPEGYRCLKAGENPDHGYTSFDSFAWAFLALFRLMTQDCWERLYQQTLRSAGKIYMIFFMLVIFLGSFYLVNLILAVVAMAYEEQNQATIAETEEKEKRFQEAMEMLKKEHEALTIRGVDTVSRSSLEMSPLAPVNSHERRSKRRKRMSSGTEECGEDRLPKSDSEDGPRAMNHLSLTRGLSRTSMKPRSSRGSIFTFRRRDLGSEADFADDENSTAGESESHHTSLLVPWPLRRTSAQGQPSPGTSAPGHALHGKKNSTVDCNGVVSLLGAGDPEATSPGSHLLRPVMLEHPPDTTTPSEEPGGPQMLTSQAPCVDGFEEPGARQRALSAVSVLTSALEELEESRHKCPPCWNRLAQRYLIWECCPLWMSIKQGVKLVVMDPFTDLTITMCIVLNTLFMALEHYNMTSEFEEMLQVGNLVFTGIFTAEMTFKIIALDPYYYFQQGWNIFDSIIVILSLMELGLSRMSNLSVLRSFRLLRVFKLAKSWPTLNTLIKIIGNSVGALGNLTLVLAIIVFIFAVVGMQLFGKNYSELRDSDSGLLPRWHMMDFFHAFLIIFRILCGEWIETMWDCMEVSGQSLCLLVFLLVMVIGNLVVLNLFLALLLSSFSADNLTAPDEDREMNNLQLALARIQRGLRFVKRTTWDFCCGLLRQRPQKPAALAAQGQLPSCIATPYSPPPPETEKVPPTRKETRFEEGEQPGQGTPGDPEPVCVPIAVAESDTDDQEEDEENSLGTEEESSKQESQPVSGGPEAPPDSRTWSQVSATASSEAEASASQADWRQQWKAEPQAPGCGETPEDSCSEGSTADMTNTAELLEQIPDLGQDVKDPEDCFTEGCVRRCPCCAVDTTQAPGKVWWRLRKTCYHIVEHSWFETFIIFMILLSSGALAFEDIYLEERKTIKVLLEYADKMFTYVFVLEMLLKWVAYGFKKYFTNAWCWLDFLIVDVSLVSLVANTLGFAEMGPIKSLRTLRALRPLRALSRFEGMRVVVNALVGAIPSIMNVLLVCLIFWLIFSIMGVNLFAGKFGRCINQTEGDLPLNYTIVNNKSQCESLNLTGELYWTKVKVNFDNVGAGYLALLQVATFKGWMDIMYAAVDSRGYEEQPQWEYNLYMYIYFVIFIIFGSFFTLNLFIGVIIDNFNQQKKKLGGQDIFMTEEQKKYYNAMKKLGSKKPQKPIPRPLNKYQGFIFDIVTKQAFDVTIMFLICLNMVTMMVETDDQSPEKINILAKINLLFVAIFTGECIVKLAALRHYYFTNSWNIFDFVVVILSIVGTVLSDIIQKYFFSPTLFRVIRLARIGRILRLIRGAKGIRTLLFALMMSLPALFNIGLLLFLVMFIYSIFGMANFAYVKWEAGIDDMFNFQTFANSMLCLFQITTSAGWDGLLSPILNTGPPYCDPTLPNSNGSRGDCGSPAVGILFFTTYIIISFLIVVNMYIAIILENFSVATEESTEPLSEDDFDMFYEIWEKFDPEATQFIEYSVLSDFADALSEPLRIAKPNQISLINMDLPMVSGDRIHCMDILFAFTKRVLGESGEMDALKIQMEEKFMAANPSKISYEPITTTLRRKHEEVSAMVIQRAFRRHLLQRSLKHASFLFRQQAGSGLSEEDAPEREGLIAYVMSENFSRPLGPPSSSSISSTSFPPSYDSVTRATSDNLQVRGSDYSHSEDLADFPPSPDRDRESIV

Counter-ions that a name gives are not always drawn.

T2 sequence (Q9UQD0 whole entry): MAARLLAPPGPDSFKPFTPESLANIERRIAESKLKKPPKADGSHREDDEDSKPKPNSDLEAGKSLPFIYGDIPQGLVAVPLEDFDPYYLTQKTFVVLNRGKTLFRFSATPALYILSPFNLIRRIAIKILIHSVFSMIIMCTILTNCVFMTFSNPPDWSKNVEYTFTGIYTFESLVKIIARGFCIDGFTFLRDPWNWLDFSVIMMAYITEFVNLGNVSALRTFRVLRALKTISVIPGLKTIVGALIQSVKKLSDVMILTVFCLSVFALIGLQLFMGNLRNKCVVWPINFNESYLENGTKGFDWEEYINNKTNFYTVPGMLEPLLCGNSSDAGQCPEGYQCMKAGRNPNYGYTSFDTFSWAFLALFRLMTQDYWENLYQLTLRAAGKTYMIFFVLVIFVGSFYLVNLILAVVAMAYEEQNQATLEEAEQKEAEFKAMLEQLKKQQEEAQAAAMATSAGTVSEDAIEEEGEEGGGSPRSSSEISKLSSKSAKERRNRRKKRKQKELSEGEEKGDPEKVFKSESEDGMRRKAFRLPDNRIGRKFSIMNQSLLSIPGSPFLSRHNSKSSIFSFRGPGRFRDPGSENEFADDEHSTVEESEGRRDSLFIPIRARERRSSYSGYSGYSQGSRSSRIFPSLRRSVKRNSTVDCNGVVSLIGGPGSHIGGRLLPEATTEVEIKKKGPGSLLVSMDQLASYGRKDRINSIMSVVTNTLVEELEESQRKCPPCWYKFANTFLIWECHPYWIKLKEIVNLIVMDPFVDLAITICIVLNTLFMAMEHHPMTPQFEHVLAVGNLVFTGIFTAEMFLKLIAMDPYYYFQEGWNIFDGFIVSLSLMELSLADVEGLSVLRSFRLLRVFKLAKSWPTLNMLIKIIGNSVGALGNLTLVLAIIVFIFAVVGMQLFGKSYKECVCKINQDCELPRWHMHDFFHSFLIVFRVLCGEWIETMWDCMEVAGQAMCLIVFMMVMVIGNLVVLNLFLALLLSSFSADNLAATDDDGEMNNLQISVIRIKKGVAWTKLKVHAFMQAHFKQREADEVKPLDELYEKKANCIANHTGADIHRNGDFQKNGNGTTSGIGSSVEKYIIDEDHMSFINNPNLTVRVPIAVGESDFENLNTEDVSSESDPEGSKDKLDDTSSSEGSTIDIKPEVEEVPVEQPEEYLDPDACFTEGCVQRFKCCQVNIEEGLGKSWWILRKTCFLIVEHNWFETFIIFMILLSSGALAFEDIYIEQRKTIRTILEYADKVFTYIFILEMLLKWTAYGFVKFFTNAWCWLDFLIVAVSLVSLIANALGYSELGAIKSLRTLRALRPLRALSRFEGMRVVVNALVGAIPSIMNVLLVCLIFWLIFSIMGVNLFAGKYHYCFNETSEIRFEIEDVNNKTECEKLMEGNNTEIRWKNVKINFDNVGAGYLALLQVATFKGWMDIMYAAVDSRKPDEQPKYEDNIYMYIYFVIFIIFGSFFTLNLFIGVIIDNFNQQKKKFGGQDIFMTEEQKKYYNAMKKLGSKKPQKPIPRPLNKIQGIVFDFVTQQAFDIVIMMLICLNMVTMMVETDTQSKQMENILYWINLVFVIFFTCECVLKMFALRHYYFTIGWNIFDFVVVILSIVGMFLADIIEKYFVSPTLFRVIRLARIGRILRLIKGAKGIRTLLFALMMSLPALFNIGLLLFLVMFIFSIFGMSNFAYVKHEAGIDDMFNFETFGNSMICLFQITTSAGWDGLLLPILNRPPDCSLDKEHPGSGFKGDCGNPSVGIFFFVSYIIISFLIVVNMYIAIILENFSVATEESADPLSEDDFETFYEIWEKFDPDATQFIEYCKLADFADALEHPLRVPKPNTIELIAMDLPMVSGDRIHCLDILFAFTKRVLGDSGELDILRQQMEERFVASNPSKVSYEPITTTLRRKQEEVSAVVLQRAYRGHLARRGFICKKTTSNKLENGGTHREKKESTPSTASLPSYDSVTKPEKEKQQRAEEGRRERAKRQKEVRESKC

In the case of `Cc1cccc(CN2CCC(Oc3ccc(S(=O)(=O)Nc4nccs4)cc3Cl)CC2)n1` [Example 82, 3-chloro-4-(1-((6-methylpyridin-2-yl)methyl)piperidin-4-yloxy)-N-(thiazol-2-yl)benzenesulfonamide], the IC50 (as a rule, the midpoint of a concentration-inhibition curve) against NaV1.1 [1] is over 30 µM; at NaV1.6 [2], 0.056 µM; at NaV1.1 [3], over 10 µM; on NaV1.6 [4], 0.423 µM; on NaV1.5, over 30 µM.
Consider `C[C@H](c1cc(Cl)ccc1F)N1CCC(Oc2ccc(S(=O)(=O)Nc3cscn3)cc2Cl)CC1` [Example 315, (R)-3-chloro-4-((1-(1-(5-chloro-2-fluorophenyl)ethyl)piperidin-4-yl)oxy)-N-(thiazol-4-yl)benzenesulfonamide], for which the IC50 against NaV1.1 [1] amounted to 5.62 µM; on NaV1.6 [2], 0.377 µM; against NaV1.1 [3] it was 4.25 µM; at NaV1.6 [4] it was 1.07 µM; at NaV1.5 it was 6.38 µM.
Turning to `CN(c1ccc(S(=O)(=O)Nc2nccs2)cc1Cl)[C@H]1CCN(Cc2cccc(C(F)F)c2)C1` [Example 28, (S)-3-chloro-4-((1-(3-(difluoromethyl)benzyl)pyrrolidin-3-yl)(methyl)amino)-N-(thiazol-2-yl)benzenesulfonamide], the IC50 against NaV1.1 [1] was determined as 3.23 µM; against NaV1.6 [2] it was 0.036 µM; at NaV1.1 [3] it was 4.21 µM; on NaV1.6 [4] it was 0.221 µM; on NaV1.5, 5.73 µM.
Taken in the same sequence, the figures for `CN(c1ccc(S(=O)(=O)Nc2cscn2)cc1Cl)[C@H]1CCN(C(C)(C)c2ccccc2)C1` [Example 62, (S)-3-chloro-4-(methyl(1-(2-phenylpropan-2-yl)pyrrolidin-3-yl)amino)-N-(thiazol-4-yl)benzenesulfonamide] were 4.24 µM, 0.15 µM, 6.55 µM, 0.536 µM and 4.53 µM.
For `CN(c1cc(F)c(S(=O)(=O)Nc2cscn2)cc1Cl)[C@H]1CCN(C(C)(C)c2ccccc2)C1` [Example 257, (S)-5-chloro-2-fluoro-4-(methyl(1-(2-phenylpropan-2-yl)pyrrolidin-3-yl)amino)-N-(thiazol-4-yl)benzenesulfonamide formate], in that order: 10.3 µM, 0.17 µM, over 10 µM, 0.701 µM and 10.6 µM.
Consider `O=S(=O)(Nc1nccs1)c1ccc(O[C@@H]2C[C@H]3CC[C@@H](C2)N3Cc2ccccc2)c(Cl)c1` [Example 16, 4-(((1R,3s,5S)-8-benzyl-8-azabicyclo[3.2.1]octan-3-yl)oxy)-3-chloro-N-(thiazol-2-yl)benzenesulfonamide], for which the IC50 at NaV1.1 [1] is 22.8 µM; against NaV1.6 [2], 0.03 µM; against NaV1.1 [3], over 10 µM; at NaV1.6 [4], 0.429 µM; on NaV1.5 it was over 30 µM.
Regarding `CN(c1cc(F)c(S(=O)(=O)Nc2cscn2)cc1Cl)[C@H]1CCN(C2(c3ccccc3)CC2)C1` [Example 259, (S)-5-chloro-2-fluoro-4-(methyl(1-(1-phenylcyclopropyl)pyrrolidin-3-yl)amino)-N-(thiazol-4-yl)benzenesulfonamide 2,2,2-trifluoroacetate], the IC50 against NaV1.1 [1] was determined as 3.77 µM; on NaV1.6 [2] it was 0.44 µM; against NaV1.1 [3] it was 3.52 µM; on NaV1.6 [4] it was 1.58 µM; at NaV1.5, 5.81 µM.
Take `C[C@H](c1ccccc1)N1CC[C@H](N(C)c2ccc(S(=O)(=O)Nc3nccs3)cc2Cl)C1` [Example 44, 3-chloro-4-(methyl((S)-1-((R)-1-phenylethyl)pyrrolidin-3-yl)amino)-N-(thiazol-2-yl)benzenesulfonamide]: the half-inhibitory concentration (IC50) against NaV1.1 [1] was 10.7 µM; against NaV1.6 [2], 0.089 µM; against NaV1.1 [3] it was over 10 µM; on NaV1.6 [4], 0.1 µM; at NaV1.5, over 30 µM.
Turning to `O=S(=O)(Nc1nccs1)c1ccc(OC2CCN(Cc3ccccn3)CC2)c(Cl)c1` [Example 65, 3-chloro-4-((1-(pyridin-2-ylmethyl)piperidin-4-yl)oxy)-N-(thiazol-2-yl)benzenesulfonamide], the IC50 on NaV1.1 [1] was over 30 µM; against NaV1.6 [2], 0.839 µM; against NaV1.1 [3], over 10 µM; at NaV1.6 [4], 0.552 µM; on NaV1.5, 29.7 µM.
Taken in the same sequence, the figures for `C[C@@]1(Nc2ccc(S(=O)(=O)Nc3cscn3)cc2Cl)CCN(Cc2ccccc2)C1` [Example 225, (R)-4-((1-benzyl-3-methylpyrrolidin-3-yl)amino)-3-chloro-N-(thiazol-4-yl)benzenesulfonamide formate] were 5.45 µM, 5.31 µM, over 10 µM, 3.9 µM and 5.55 µM.
For `CCN(c1cc(F)c(S(=O)(=O)Nc2cscn2)cc1Cl)[C@H]1CCN(Cc2ccccc2)C1` [Example 263, (S)-4-((1-benzylpyrrolidin-3-yl)(ethyl)amino)-5-chloro-2-fluoro-N-(thiazol-4-yl)benzenesulfonamide], in that order: 4.44 µM, 3.81 µM, over 10 µM, 3.1 µM and 19.1 µM.
Consider `C[C@]1(Nc2ccc(S(=O)(=O)Nc3cscn3)cc2Cl)CCN(Cc2ccccc2)C1` [Example 226, (S)-4-((1-benzyl-3-methylpyrrolidin-3-yl)amino)-3-chloro-N-(thiazol-4-yl)benzenesulfonamide formate], for which the IC50 at NaV1.1 [1] is 11.5 µM; against NaV1.6 [2], 3.08 µM; on NaV1.1 [3], over 10 µM; on NaV1.6 [4] it was 2.43 µM; on NaV1.5, 9.04 µM.
For `O=S(=O)(Nc1nccs1)c1ccc(OC2CCN(Cc3cccc(C(F)F)c3)CC2)c(Cl)c1` [Example 11, 3-chloro-4-((1-(3-(difluoromethyl)benzyl)piperidin-4-yl)oxy)-N-(thiazol-2-yl)benzenesulfonamide], in that order: 8.12 µM, 0.082 µM, 7.21 µM, 0.253 µM and 7.58 µM.
With `CC(C)(c1ccccc1)N1CCC(Oc2ccc(S(=O)(=O)Nc3nccs3)cc2Cl)CC1` [Example 59, 3-chloro-4-((1-(2-phenylpropan-2-yl)piperidin-4-yl)oxy)-N-(thiazol-2-yl)benzenesulfonamide 2,2,2-trifluoroacetate], the IC50 against NaV1.1 [1] stood at 7.44 µM; at NaV1.6 [2], 0.092 µM; against NaV1.1 [3], 9.91 µM; at NaV1.6 [4] it was 0.255 µM; on NaV1.5, 7.44 µM.
For `CN(c1ccc(S(=O)(=O)Nc2nccs2)cc1Cl)[C@H]1CCN(Cc2cccc(Cl)c2)C1` [Example 27, (S)-3-chloro-4-((1-(3-chlorobenzyl)pyrrolidin-3-yl)(methyl)amino)-N-(thiazol-2-yl)benzenesulfonamide], the IC50 is 3.73 µM on NaV1.1 [1]; 0.07 µM on NaV1.6 [2]; 3.41 µM against NaV1.1 [3]; 0.437 µM at NaV1.6 [4]; 6.9 µM on NaV1.5.
`C[C@H]1CN(Cc2ccccc2)C[C@@H]1Nc1ccc(S(=O)(=O)Nc2nccs2)cc1Cl` (relative stereo) [Example 74, 4-((trans-1-benzyl-4-methylpyrrolidin-3-yl)amino)-3-chloro-N-(thiazol-2-yl)benzenesulfonamide]: the half-inhibitory concentration (IC50) against NaV1.1 [1] was 1.54 µM; on NaV1.6 [2], 0.025 µM; against NaV1.1 [3], 1.03 µM; at NaV1.6 [4], 0.167 µM; at NaV1.5 it was 8.67 µM.

Source of the values: US10246453B2, “Benzenesulfonamide compounds and their use as therapeutic agents” (Xenon Pharmaceuticals Inc., priority 2016, dated 2019).
